In patent US4250259A, “Microbiological production of ketones from C3 -C6 secondary alcohols” (priority 1979, dated 1981):
Read-outs that look alike come from different tables or passages of the source.

Assays:
[1] = test system: secondary alcohol dehydrogenase (SADH), cell-free soluble extract; conditions: Growth Substrate CH3 OH
Procedure: (§1) To prepare the cell-free secondary alcohol dehydrogenase (SADH) system, the washed cells were disrupted with a Wave Energy Ultrasonic Oscillator, Model W201 (Wave Energy System, Inc., Newtown, Pa.) and centrifuged at 20,000×g. for 30 minutes. […] The enzyme activity was measured with a fluorescence spectrophotometer (Perkin Elmer, Model MPF 44A) by following the formation of reduced NAD (EX 340 nm, Em 460 nm). The formation of reduced NAD was also followed with an absorption spectrophotometer at 340 nm. The assay system (3 ml.) contained: potassium phosphate buffer pH 7.0; 150 μmol.; NAD 1 μmol.; a given amount of enzyme preparation; and secondary alcohol 10 μmol. The reaction was started by the addition of substrate. One unit of enzyme activity represents the reduction of one μmole NAD per minute. Protein concentrations were determined by the Lowry method (J. Biol. Chem., 193: 255-275 (1951)).
(§2) The experimental procedure for the tests reported in Table VIII were as follows: 1 mg protein of crude extract was added into a 0.5 ml. 0.05 M phosphate buffer (pH 7.0) in a 10-ml. vial. […] The reaction mixture was incubated at 30° C. on a water bath. A 3 μl sample was removed with a syringe at 15 min. of incubation and was assayed with g.l.c. Catalytic activity was also assayed by fluorescence spectrophotometry.

[2] = test system: secondary alcohol dehydrogenase (SADH), cell-free soluble extract; conditions: Growth Substrate CH4
Procedure: as §1, §2

[3] = test system: secondary alcohol dehydrogenase (SADH), cell-free soluble extract; conditions: Growth Substrate CH4; remark: listed apart in the source
Procedure: as §1, §2

[4] = test system: secondary alcohol dehydrogenase (SADH), cell-free soluble extract
Procedure: as §1, §2

[5] = test system: secondary alcohol dehydrogenase (SADH), cell-free soluble extract; conditions: Growth Substrate CH3 OH; remark: listed apart in the source
Procedure: as §1, §2

[6] = test system: secondary alcohol dehydrogenase (SADH), cell-free soluble extract; conditions: Growth Substrate CH3 OH; remark: listed apart in the source
Procedure: as §1, §2

[7] = test system: secondary alcohol dehydrogenase (SADH), cell-free soluble extract; conditions: Growth Substrate CH3 OH; remark: listed apart in the source
Procedure: as §1, §2

[8] = test system: secondary alcohol dehydrogenase, crude extracts; conditions: 2-butanol as a substrate; extracts of methanol-grown yeast
Procedure: (§3) Cell suspensions (2 g. wet weight) of packed cells in 10 ml. of 50 mM sodium phosphate buffer, pH 7.0 at 4° C. were disrupted by sonication with a Megason ultrasonic disintegration. The sonicated cell suspensions were centrifuged for 15 minutes at 30,000×g. The supernantant liquid was termed the crude extracts.
(§4) Secondary alcohol dehydrogenase activity was measured spectrophotometrically at 340 nm with a NAD^+ as an electron acceptor. The reaction mixture, in a total 3.0 ml., contained 50 mM phosphate buffer, pH 8.0, 5 μmoles NAD^+, crude extracts, and substrate. The reactions were started by addition of 100 μl of 0.1 M substrate and the rate of NAD^+ reduction was measured. Protein concentration was determined by the method of Lowry et al.
(§5) Oxidation of secondary alcohols were also estimated spectrophotometrically by measuring the reduction of NAD^+. […] NRRL Y-11,328 Torulopsis sp.

[9] = test system: Hansenula anomala NRRL Y-336; conditions: cell suspensions
Procedure: (§6) The cells were harvested during exponential growth by centrifugation at 12,000×g. for 15 min. The cell pellet was washed twice with 50 mM phosphate buffer, pH 7. The final pellet was resuspended in the same buffer. Cell suspensions of yeasts grown on ethanol, methylamine, and methylformate were prepared as described above using 0.4 v/v ethanol, 10 mM methylamine and 10 mM methylformate as the sole source of carbon and energy.
(§7) A 1 ml. aliquot of each washed cell suspension of yeasts grown on various carbon sources was put into 10 ml. vials at 40° C. […] The vials were then incubated at 30° C. on a rotary water bath shaker at 200 rpm. The product of oxidation of secondary alcohols was detected by gas chromatography retention time comparison and co-chromatography with authentic standard.

[10] = test system: Candida boidinii NRRL Y-2332; conditions: cell suspensions
Procedure: as §6, §7

[11] = test system: Pichia pastoris NRRL Y-55; conditions: cell suspensions
Procedure: as §6, §7

[12] = test system: secondary alcohol dehydrogenase, crude extracts; conditions: 2-butanol as a substrate; extracts of methanol-grown yeast; remark: listed apart in the source
Procedure: as §3, §4, §5

[13] = test system: secondary alcohol dehydrogenase (SADH), cell-free soluble extract; conditions: Growth Substrate CH3 OH; remark: listed apart in the source
Procedure: as §1, §2

[14] = test system: secondary alcohol dehydrogenase (SADH), cell-free soluble extract; remark: listed apart in the source
Procedure: as §1, §2

[15] = test system: secondary alcohol dehydrogenase (SADH), cell-free soluble extract; conditions: Growth Substrate CH3 OH; remark: listed apart in the source
Procedure: as §1, §2

[16] = test system: secondary alcohol dehydrogenase (SADH), cell-free soluble extract; conditions: Growth Substrate CH3 OH; remark: listed apart in the source
Procedure: as §1, §2

[17] = test system: secondary alcohol dehydrogenase, crude extracts; conditions: 2-butanol as a substrate; extracts of methanol-grown yeast; remark: listed apart in the source
Procedure: as §3, §4, §5

[18] = test system: secondary alcohol dehydrogenase (SADH), cell-free soluble extract; conditions: Growth Substrate CH4; remark: listed apart in the source
Procedure: as §1, §2

[19] = test system: cell-free extracts of strain ATCC 21439; experiment: stoichiometry of production of 2-butanone from 2-butanol by cell-free extracts (Table IX); format: biochemical, Pseudomonas sp. ATCC 21,439; conditions: 30° C., 1.0 mg protein, 1.0 μmoles NAD, 10 μmoles 2-butanol
Procedure: The reaction mixtures 3 ml (1.0 mg protein) were incubated at 30°
^(a) Determined gas chromatographically.
^(b) Determined fluorescence spectrophotometrically.
consumption of NAD was corrected.

[20] = test system: secondary alcohol dehydrogenase, crude extracts; conditions: 2-butanol as a substrate; extracts of methanol-grown yeast; remark: listed apart in the source
Procedure: as §3, §4, §5

[21] = test system: secondary alcohol dehydrogenase, crude extracts; conditions: 2-butanol as a substrate; extracts of methanol-grown yeast; remark: listed apart in the source
Procedure: as §3, §4, §5

[22] = test system: secondary alcohol dehydrogenase (SADH), cell-free soluble extract; conditions: Growth Substrate CH4; remark: listed apart in the source
Procedure: as §1, §2

CCC(C)O (centres unmarked) [2-Butanol, 2-butanol]
Conversion Rate, 2-butanol to 2-butanone [1]: 2.0 nmoles/min/mg protein | Conversion Rate, 2-butanol to 2-butanone [2]: 1.8 nmoles/min/mg protein | Conversion Rate, 2-butanol to 2-butanone [3]: 1.4 nmoles/min/mg protein | Conversion Rate, 2-butanol to 2-butanone ([4]; Growth Substrate CH3 NH2): 20.0 nmoles/min/mg protein | Conversion Rate, 2-butanol to 2-butanone ([4]; Growth Substrate CH3 OH): 23.2 nmoles/min/mg protein | Conversion Rate, 2-butanol to 2-butanone ([4]; Growth Substrate HCOOCH3): 16.0 nmoles/min/mg protein | Conversion Rate, 2-butanol to 2-butanone [5]: 1.5 nmoles/min/mg protein | Conversion Rate, 2-butanol to 2-butanone [6]: 3.0 nmoles/min/mg protein | Conversion Rate, 2-butanol to 2-butanone [7]: 15.0 nmoles/min/mg protein | specific activities [8]: 105 nmoles NAD^+ reduced per min. per mg. protein | conversion rates, 2-butanol to 2-butanone [9]: 5.5 μ moles/hr/mg. protein | conversion rates, 2-butanol to 2-butanone [10]: 6.0 μ moles/hr/mg. protein | conversion rates, 2-butanol to 2-butanone [11]: 5.8 μ moles/hr/mg. protein | specific activities [12]: 90 nmoles NAD^+ reduced per min. per mg. protein | Conversion Rate, 2-butanol to 2-butanone [13]: 1.8 nmoles/min/mg protein | Conversion Rate, 2-butanol to 2-butanone ([14]; Growth Substrate CH3 OH): 2.0 nmoles/min/mg protein | Conversion Rate, 2-butanol to 2-butanone ([14]; Growth Substrate CH4): 1.5 nmoles/min/mg protein | Conversion Rate, 2-butanol to 2-butanone [15]: 2.4 nmoles/min/mg protein | Conversion Rate, 2-butanol to 2-butanone [16]: 1.6 nmoles/min/mg protein | specific activities [17]: 78 nmoles NAD^+ reduced per min. per mg. protein | Conversion Rate, 2-butanol to 2-butanone [18]: 0.8 nmoles/min/mg protein | 2-Butanol Consumed ([19]; Experiment 1: 10 min.): 260 nmol | 2-Butanol Consumed ([19]; Experiment 2: 20 min.): 530 nmol | specific activities [20]: 62 nmoles NAD^+ reduced per min. per mg. protein | specific activities [21]: 85 nmoles NAD^+ reduced per min. per mg. protein | Conversion Rate, 2-butanol to 2-butanone [22]: 1.2 nmoles/min/mg protein
